# Laboratory results published in US6407041B1, “Substituted 2,4-diamino-1,3,5-triazines” (Bayer Aktiengesellschaft, priority 1997, dated 2002).
# What was measured:
# Maize = test: Pre-emergence test (greenhouse), crop plant; format: in vivo; conditions: 1000 g of ai./ha, rated after three weeks vs untreated control, 0%=no effect, 100%=total destruction
# Description: (§1) Solvent: 5 parts by weight of acetone
# (§2) Emulsifier: 1 part by weight of alkylaryl polyglycol ether
# (§3) To produce a suitable preparation of active compound, 1 part by weight of active compound is mixed with the stated amount of solvent, the stated amount of emulsifier is added and the concentrate is diluted with water to the desired concentration.
# (§4) Seeds of the test plants are sown in normal soil. After about 24 hours, the soil is sprayed with the preparation of active compound such that the particular amounts of active compound desired are applied per unit area. The concentration of the spray liquor is chosen so that the particular amounts of active compound desired are applied in 1000 l of water/ha.
# (§5) After three weeks, the degree of damage to the plants is rated in % damage in comparison with the development of the untreated control.
# (§6) 0%=no effect (like untreated control)
# Abutilon [1] = test: Pre-emergence test (greenhouse); format: in vivo; conditions: 1000 g of ai./ha, rated after three weeks vs untreated control, 0%=no effect, 100%=total destruction
# Description: as §1, §2, §3, §4, §5, §6
# Amaranthus [2] = test: Pre-emergence test (greenhouse); format: in vivo; conditions: 1000 g of ai./ha, rated after three weeks vs untreated control, 0%=no effect, 100%=total destruction
# Description: as §1, §2, §3, §4, §5, §6
# Sinapis [3] = test: Pre-emergence test (greenhouse); format: in vivo; conditions: 1000 g of ai./ha, rated after three weeks vs untreated control, 0%=no effect, 100%=total destruction
# Description: as §1, §2, §3, §4, §5, §6
# Alopecurus [4] = test: Pre-emergence test (greenhouse); format: in vivo; conditions: 1000 g of ai./ha, rated after three weeks vs untreated control, 0%=no effect, 100%=total destruction
# Description: as §1, §2, §3, §4, §5, §6
# weeds [5] = test: Pre-emergence test, overall action; format: in vivo; conditions: result in words
# Description: as §1, §2, §3, §4, §5, §6
# weeds [6] = test: Post-emergence test, overall action; format: in vivo; conditions: result in words
# Description: as §1, §2
# (§7) To produce a suitable preparation of active compound, I part by weight of active compound is mixed with the stated amount of solvent, the stated amount of emulsifier is added and the concentrate is diluted with water to the desired concentration.
# as §4, with “Test plants having a height” for “Seeds”, “5-15 cm” for “the test plants”, “are” for “are sown in normal soil. After about 24 hours, the soil is”
# as §5, §6
# Galium [7] = test: Post-emergence test/greenhouse; format: in vivo; conditions: 1000 g of ai./ha, test plants 5-15 cm, rated after three weeks vs untreated control, 0%=no effect, 100%=total destruction
# Description: as §1, §2, §7
# as §4, with “Test plants having a height” for “Seeds”, “5-15 cm” for “the test plants”, “are” for “are sown in normal soil. After about 24 hours, the soil is”
# as §5, §6
# Abutilon [8] = test: Post-emergence test/greenhouse; format: in vivo; conditions: 1000 g of ai./ha, test plants 5-15 cm, rated after three weeks vs untreated control, 0%=no effect, 100%=total destruction
# Description: as §1, §2, §7
# as §4, with “Test plants having a height” for “Seeds”, “5-15 cm” for “the test plants”, “are” for “are sown in normal soil. After about 24 hours, the soil is”
# as §5, §6
# Amaranthus [9] = test: Post-emergence test/greenhouse; format: in vivo; conditions: 1000 g of ai./ha, test plants 5-15 cm, rated after three weeks vs untreated control, 0%=no effect, 100%=total destruction
# Description: as §1, §2, §7
# as §4, with “Test plants having a height” for “Seeds”, “5-15 cm” for “the test plants”, “are” for “are sown in normal soil. After about 24 hours, the soil is”
# as §5, §6
# Sinapis [10] = test: Post-emergence test/greenhouse; format: in vivo; conditions: 1000 g of ai./ha, test plants 5-15 cm, rated after three weeks vs untreated control, 0%=no effect, 100%=total destruction
# Description: as §1, §2, §7
# as §4, with “Test plants having a height” for “Seeds”, “5-15 cm” for “the test plants”, “are” for “are sown in normal soil. After about 24 hours, the soil is”
# as §5, §6
# Alopecurus [11] = test: Post-emergence test/greenhouse; format: in vivo; conditions: 1000 g of ai./ha, test plants 5-15 cm, rated after three weeks vs untreated control, 0%=no effect, 100%=total destruction
# Description: as §1, §2, §7
# as §4, with “Test plants having a height” for “Seeds”, “5-15 cm” for “the test plants”, “are” for “are sown in normal soil. After about 24 hours, the soil is”
# as §5, §6
# Setaria = test: Pre-emergence test (greenhouse); format: in vivo; conditions: 1000 g of ai./ha, rated after three weeks vs untreated control, 0%=no effect, 100%=total destruction
# Description: as §1, §2, §3, §4, §5, §6
# Galium [12] = test: Pre-emergence test (greenhouse); format: in vivo; conditions: 1000 g of ai./ha, rated after three weeks vs untreated control, 0%=no effect, 100%=total destruction
# Description: as §1, §2, §3, §4, §5, §6
compound,measurement,setting,value
"CCc1nc(N)nc(NC(CC)COCc2ccc(F)cc2)n1 (racemic) [Example 1, 2-amino-4-ethyl-6-[1-(4-fluorobenzyloxymethyl)-propylamino]-1,3,5-triazine]",melting point,,96 °C
CCC(COCc1cccc(Cl)c1)Nc1nc(N)nc(C(C)(C)F)n1 (centres unmarked) [drawing 496],"degree of damage to the plants, Maize",Maize,10%
same,"degree of damage to the plants, Abutilon",Abutilon [1],95%
same,"degree of damage to the plants, Amaranthus",Amaranthus [2],100%
same,"degree of damage to the plants, Sinapis",Sinapis [3],90%
same,"degree of damage to the plants, Alopecurus",Alopecurus [4],95%
CCC(COCc1cccc(Cl)c1)Nc1nc(N)nc(C(C)(C)F)n1 (centres unmarked) [Example 14],action against weeds,weeds [5],very strong action against weeds
same,action against weeds,weeds [6],very strong action against weeds
same,melting point,,104 °C
CCC(COCc1ccccc1)Nc1nc(N)nc(C(C)(C)F)n1 (centres unmarked) [drawing 497],"degree of damage to the plants, Galium",Galium [7],90%
same,"degree of damage to the plants, Abutilon",Abutilon [8],100%
same,"degree of damage to the plants, Amaranthus",Amaranthus [9],100%
same,"degree of damage to the plants, Sinapis",Sinapis [10],100%
same,"degree of damage to the plants, Alopecurus",Alopecurus [11],95%
CCC(COCc1ccccc1)Nc1nc(N)nc(C(C)(C)F)n1 (centres unmarked) [drawing 495],"degree of damage to the plants, Setaria",Setaria,100%
same,"degree of damage to the plants, Galium",Galium [12],100%
same,"degree of damage to the plants, Abutilon",Abutilon [1],100%
same,"degree of damage to the plants, Amaranthus",Amaranthus [2],100%
same,"degree of damage to the plants, Sinapis",Sinapis [3],100%
same,"degree of damage to the plants, Alopecurus",Alopecurus [4],100%
CCC(COCc1cccc(Cl)c1)Nc1nc(N)nc(C(C)(C)F)n1 (centres unmarked) [drawing 498],"degree of damage to the plants, Galium",Galium [7],95%
same,"degree of damage to the plants, Abutilon",Abutilon [8],100%
same,"degree of damage to the plants, Amaranthus",Amaranthus [9],100%
same,"degree of damage to the plants, Sinapis",Sinapis [10],100%
same,"degree of damage to the plants, Alopecurus",Alopecurus [11],100%
CCC(COCc1ccccc1C)Nc1nc(NC(C)=O)nc(C(C)(C)F)n1 (racemic) [Example 2],melting point,,108 °C
CCC(COCc1ccccc1)Nc1nc(N)nc(C(C)(C)F)n1 (centres unmarked) [Example 8],action against weeds,weeds [5],very strong action against weeds
same,action against weeds,weeds [6],very strong action against weeds
same,melting point,,114 °C
